Laboratory results published in patent US10106544B2, “1,2-dihydro-3H-pyrrolo[1,2-C]imidazol-3-one derivatives and their use as antibacterial agents” (priority 2014, dated 2018).
≈ marks a conversion by molar mass, not a printed value.

Assays:
Assay in all cases: Bacterial growth minimal inhibitory concentration (microdilution, cation-adjusted Mueller-Hinton Broth)
Assay type in all cases: cell-based
[1] = system: P. aeruginosa ATCC27853; settings: for MIC: Pseudomonas aeruginosa, ATCC27853, quinolone-sensitive strain, read-out: MIC for P. aeruginosa ATCC27853
Protocol: (§1) Minimal Inhibitory Concentrations (MICs; mg/L) were determined in cation-adjusted Mueller-Hinton Broth by a microdilution method following the description given in “Methods for Dilution Antimicrobial Susceptibility Tests for Bacteria that Grow Aerobically”, Approved standard, 7th ed., a Clinical and Laboratory Standards Institute (CLSI) Document M7-A7, Wayne, Pa., USA (2006).
(§2) All Example compounds were tested against several Gram-positive and Gram-negative bacteria. […] K. pneumoniae A-651 is a multiply-resistant strain (in particular quinolone-resistant), while E. coli ATCC25922 and P. aeruginosa ATCC27853 are quinolone-sensitive strains.

[2] = system: E. coli ATCC25922; settings: quinolone-sensitive strain; for MIC: Escherichia coli, ATCC25922, read-out: MIC for E. coli ATCC25922
Protocol: as §1, §2

[3] = system: K. pneumoniae A-651; settings: multiply-resistant strain (in particular quinolone-resistant); for MIC: Klebsiella pneumoniae, A651, read-out: MIC for K. Pneumoniae A-651
Protocol: as §1, §2

SMILES	MIC [1] [µg/mL]	MIC [2] [µg/mL]	MIC [3] [µg/mL]	MIC for P. aeruginosa ATCC27853 ([1]; quinolone-sensitive strain) [µg/mL]	MIC for E. coli ATCC25922 [2] [µg/mL]	MIC for K. Pneumoniae A-651 [3] [µg/mL]
C[C@@](CCN1Cc2cc(C#CC#CC(CO)C3CCC3)cn2C1=O)(C(=O)NO)S(C)(=O)=O (mixture of isomers) [Example 60, (2R)-4-(6-((5RS)-5-cyclobutyl-6-hydroxyhexa-1,3-diyn-1-yl)-3-oxo-1H-pyrrolo[1,2-c]imidazol-2(3H)-yl)-N-hydroxy-2-methyl-2-(methylsulfonyl)butanamide]	4	0.5	1			
CC(CCN1Cc2cc(-c3ccc(C4(O)COC4)cc3)cn2C1=O)(C(=O)NO)S(C)(=O)=O (racemic) [RE1, (RS)—N-hydroxy-4-(6-(4-(3-hydroxyoxetan-3-yl)phenyl)-3-oxo-1H-pyrrolo[1,2-c]imidazol-2(3H)-yl)-2-methyl-2-(methylsulfonyl)butanamide]	16 (≈ 34.5 µM)	8 (≈ 17.3 µM)	16 (≈ 34.5 µM)			
CCOC(C)(C)c1ccc(C#Cc2cc3n(c2)C(=O)N(CCC(C)(C(=O)NO)S(C)(=O)=O)C3)cc1 (racemic) [RE2, (RS)-4-(6-((4-(2-ethoxypropan-2-yl)phenyl)ethynyl)-3-oxo-1H-pyrrolo[1,2-c]imidazol-2(3H)-yl)-N-hydroxy-2-methyl-2-(methylsulfonyl)butanamide]	8 (≈ 15.9 µM)	2 (≈ 3.99 µM)	2 (≈ 3.99 µM)			
CC(CCN1Cc2cc(C#Cc3ccc(CO)cc3F)cn2C1=O)(C(=O)NO)S(C)(=O)=O (racemic) [RE3, (RS)-4-(6-((2-fluoro-4-(hydroxymethyl)phenyl)ethynyl)-3-oxo-1H-pyrrolo[1,2-c]imidazol-2(3H)-yl)-N-hydroxy-2-methyl-2-(methylsulfonyl)butanamide]	4 (≈ 8.63 µM)	0.5 (≈ 1.08 µM)	1 (≈ 2.16 µM)			
CC(C)(O)C#Cc1ccc(-c2cc3n(c2)C(=O)N(CCC(C)(C(=O)NO)S(C)(=O)=O)C3)cc1 (racemic) [RE4, (RS)—N-hydroxy-4-(6-(4-(3-hydroxy-3-methylbut-1-yn-1-yl)phenyl)-3-oxo-1H-pyrrolo[1,2-c]imidazol-2(3H)-yl)-2-methyl-2-(methylsulfonyl)butanamide]	2 (≈ 4.22 µM)	0.25 (≈ 0.528 µM)	0.5 (≈ 1.06 µM)			
CC(C)(O)C#CC#Cc1cc2n(c1)C(=O)N(CCC(C)(C(=O)NO)S(C)(=O)=O)C2 (racemic) [RE5, (RS)—N-hydroxy-4-(6-(5-hydroxy-5-methylhexa-1,3-diyn-1-yl)-3-oxo-1H-pyrrolo[1,2-c]imidazol-2(3H)-yl)-2-methyl-2-(methylsulfonyl)butanamide]	4 (≈ 9.49 µM)	2 (≈ 4.75 µM)	8 (≈ 19 µM)			
CN1CCN(Cc2ccc(C#Cc3cc4n(c3)C(=O)N(CCC(C)(C(=O)NO)S(C)(=O)=O)C4)cc2)CC1 (racemic) [RE6, (RS)—N-hydroxy-2-methyl-4-(6-((4-((4-methylpiperazin-1-yl)methyl)phenyl)ethynyl)-3-oxo-1H-pyrrolo[1,2-c]imidazol-2(3H)-yl)-2-(methylsulfonyl)butanamide]	2 (≈ 3.79 µM)	2 (≈ 3.79 µM)	8 (≈ 15.2 µM)			
CC(CCN1Cc2cc(-c3ccc(OCCO)cc3)cn2C1=O)(C(=O)NO)S(C)(=O)=O (racemic) [RE7, (RS)—N-hydroxy-4-(6-(4-(2-hydroxyethoxy)phenyl)-3-oxo-1H-pyrrolo[1,2-c]imidazol-2(3H)-yl)-2-methyl-2-(methylsulfonyl)butanamide]	8 (≈ 17.7 µM)	4 (≈ 8.86 µM)	8 (≈ 17.7 µM)			
COCCOc1ccc(-c2cc3n(c2)C(=O)N(CCC(C)(C(=O)NO)S(C)(=O)=O)C3)cc1 (racemic) [RE8, (RS)—N-hydroxy-4-(6-(4-(2-methoxyethoxy)phenyl)-3-oxo-1H-pyrrolo[1,2-c]imidazol-2(3H)-yl)-2-methyl-2-(methylsulfonyl)butanamide]	8 (≈ 17.2 µM)	2 (≈ 4.3 µM)	2 (≈ 4.3 µM)			
Cc1ccc(-c2cc3n(c2)C(=O)N(CCC(C)(C(=O)NO)S(C)(=O)=O)C3)c(F)c1 (racemic) [RE9, (RS)-4-(6-(2-fluoro-4-methylphenyl)-3-oxo-1H-pyrrolo[1,2-c]imidazol-2(3H)-yl)-N-hydroxy-2-methyl-2-(methylsulfonyl)butanamide]	0.5 (≈ 1.18 µM)	0.125 (≈ 0.295 µM)	2 (≈ 4.72 µM)			
CC(C)Oc1ccc(-c2cc3n(c2)C(=O)N(CCC(C)(C(=O)NO)S(C)(=O)=O)C3)cc1F (racemic) [RE10, (RS)-4-(6-(3-fluoro-4-isopropoxyphenyl)-3-oxo-1H-pyrrolo[1,2-c]imidazol-2(3H)-yl)-N-hydroxy-2-methyl-2-(methylsulfonyl)butanamide]	2 (≈ 4.28 µM)	0.25 (≈ 0.535 µM)	8 (≈ 17.1 µM)			
C[C@@](CCN1Cc2cc(C#CC#C[C@@]3(F)C[C@@H]3CO)cn2C1=O)(C(=O)NO)S(C)(=O)=O (relative stereo) [Example 66, (R)-4-(6-(((1R*,2R*)-1-fluoro-2-(hydroxymethyl)cyclopropyl)buta-1,3-diyn-1-yl)-3-oxo-1H-pyrrolo[1,2-c]imidazol-2(3H)-yl)-N-hydroxy-2-methyl-2-(methylsulfonyl)butanamide]	1 (≈ 2.21 µM)	0.125 (≈ 0.277 µM)	0.5 (≈ 1.11 µM)			
C[C@@](CCN1Cc2cc(C#CC#C[C@@]3(F)C[C@@H]3CO)cn2C1=O)(C(=O)NO)S(C)(=O)=O (relative stereo) [Example 67, (R)-4-(6-(((1R*,2R*)-1-fluoro-2-(hydroxymethyl)cyclopropyl)buta-1,3-diyn-1-yl)-3-oxo-1H-pyrrolo[1,2-c]imidazol-2(3H)-yl)-N-hydroxy-2-methyl-2-(methylsulfonyl)butanamide]				0.5	0.125	0.5
C[C@@](CCN1Cc2cc(C#CC#C[C@H]3C[C@]3(F)CO)cn2C1=O)(C(=O)NO)S(C)(=O)=O (single isomer, unassigned) [Example 78]	0.5 (≈ 1.11 µM)	0.25 (≈ 0.554 µM)	0.5 (≈ 1.11 µM)			
C[C@@](CCN1Cc2cc(C#CC#C[C@@H]3C[C@@]3(F)CO)cn2C1=O)(C(=O)NO)S(C)(=O)=O (single isomer, unassigned) [Example 79]	0.5 (≈ 1.11 µM)	0.25 (≈ 0.554 µM)	0.25 (≈ 0.554 µM)			
COc1ccc(-c2cc3n(c2)C(=O)N(CC[C@](C)(C(=O)NO)S(C)(=O)=O)C3)c(F)c1 [Example 1, (R)-4-(6-(2-fluoro-4-methoxyphenyl)-3-oxo-1H-pyrrolo[1,2-c]imidazol-2(3H)-yl)-N-hydroxy-2-methyl-2-(methylsulfonyl)butanamide]	1 (≈ 2.28 µM)	0.125 (≈ 0.284 µM)	≤ 0.063			
C[C@@](CCN1Cc2cc(C#Cc3ccc(C4(O)COC4)cc3)cn2C1=O)(C(=O)NO)S(C)(=O)=O [Example 2, (R)-N-hydroxy-4-(6-((4-(3-hydroxyoxetan-3-yl)phenyl)ethynyl)-3-oxo-1H-pyrrolo[1,2-c]imidazol-2(3H)-yl)-2-methyl-2-(methylsulfonyl)butanamide]	1 (≈ 2.05 µM)	0.5 (≈ 1.03 µM)	1 (≈ 2.05 µM)			
C[C@@](CCN1Cc2cc(C#Cc3ccc(CO)cc3)cn2C1=O)(C(=O)NO)S(C)(=O)=O [Example 3, (R)-N-hydroxy-4-(6-((4-(hydroxymethyl)phenyl)ethynyl)-3-oxo-1H-pyrrolo[1,2-c]imidazol-2(3H)-yl)-2-methyl-2-(methylsulfonyl)butanamide]	2 (≈ 4.49 µM)	0.125 (≈ 0.281 µM)	0.5 (≈ 1.12 µM)			
C[C@@](CCN1Cc2cc(C#CC#CC3(O)COC3)cn2C1=O)(C(=O)NO)S(C)(=O)=O [Example 4, (R)-N-hydroxy-4-(6-((3-hydroxyoxetan-3-yl)buta-1,3-diyn-1-yl)-3-oxo-1H-pyrrolo[1,2-c]imidazol-2(3H)-yl)-2-methyl-2-(methylsulfonyl)butanamide]	4 (≈ 9.19 µM)	2 (≈ 4.59 µM)	2 (≈ 4.59 µM)			
C[C@@](CCN1Cc2cc(C#Cc3ccc([C@@H]4C[C@H]4CO)cc3)cn2C1=O)(C(=O)NO)S(C)(=O)=O [Example 5, (R)-N-hydroxy-4-(6-((4-((1R,2R)-2-(hydroxymethyl)cyclopropyl)phenyl)ethynyl)-3-oxo-1H-pyrrolo[1,2-c]imidazol-2(3H)-yl)-2-methyl-2-(methylsulfonyl)butanamide]	0.5 (≈ 1.03 µM)	≤ 0.063	0.125 (≈ 0.257 µM)			
C[C@@](CCN1Cc2cc(C#Cc3ccc([C@H]4C[C@@H]4CO)cc3)cn2C1=O)(C(=O)NO)S(C)(=O)=O [Example 6, (R)-N-hydroxy-4-(6-((4-((1S,2S)-2-(hydroxymethyl)cyclopropyl)phenyl)ethynyl)-3-oxo-1H-pyrrolo[1,2-c]imidazol-2(3H)-yl)-2-methyl-2-(methylsulfonyl)butanamide]	0.5 (≈ 1.03 µM)	0.031 (≈ 0.0638 µM)	0.125 (≈ 0.257 µM)			
C[C@@](CCN1Cc2cc(C#Cc3ccc(C4(CO)CC4)cc3)cn2C1=O)(C(=O)NO)S(C)(=O)=O [Example 7, (R)-N-hydroxy-4-(6-((4-(1-(hydroxymethyl)cyclopropyl)phenyl)ethynyl)-3-oxo-1H-pyrrolo[1,2-c]imidazol-2(3H)-yl)-2-methyl-2-(methylsulfonyl)butanamide]	0.5 (≈ 1.03 µM)	0.125 (≈ 0.257 µM)	0.25 (≈ 0.515 µM)			
C[C@@](CCN1Cc2cc(C#Cc3ccc(C4(CN)CC4)cc3)cn2C1=O)(C(=O)NO)S(C)(=O)=O.O=CO [Example 8, (R)-4-(6-((4-(1-(aminomethyl)cyclopropyl)phenyl)ethynyl)-3-oxo-1H-pyrrolo[1,2-c]imidazol-2(3H)-yl)-N-hydroxy-2-methyl-2-(methylsulfonyl)butanamide formate]	4	8	8			
